Test results as given in patent publication US6911330B1, “Recombinant secoisolariciciresinol dehydrogensase, and methods of use” (Washington State University Research Foundation, priority 1998, dated 2005).

How the values were obtained:
[1] = molecular target: T1, secoisolariciresinol dehydrogenase (Forsythia intermedia, UniProt Q94KL7, F122L/G175A/I11F); test: Dehydrogenase activity of recombinant enzyme expressed in E. coli; type: biochemical; settings: crude supernate of E. coli expressing DEHY133
T1 construct: The dehydrogenase coding region was also excised using the Nde I sites at the 5′ and 3′ ends and cloned into the SBET vector; made in house; host or cells: E. coli B834(DE3), SBET vector
Procedure: (§1) Secoisolarciresinol dehydrogenase activity was assayed by monitoring the formation of (−)-[9′-^3H2]matairesinol. Each assay consisted of NAD (50 mM in 0.1 M potassium phosphate buffer, pH 7, 5 μl), (±)-[9,9′-^3H2]secoisolariciresinols (28 nM, 130 MBq/mmol in ethanol, 5 μl) and buffer (50 mM Tris-HCl, pH 8.8, 470 μl ). The enzymatic reaction was initiated by addition of the enzyme preparation (20 μl). After 1 h incubation at 30° C. with shaking, the mixture was extracted with EtOAc (500 μl ×2) containing unlabelled (±)-matairesinols (200 μg) as radiochemical carriers. After centrifugation (13,800×g, 5 min) the EtOAc solubles were removed, evaporated to dryness in vacuo, reconstituted in MeOH:3% acetic acid in H2O (1:1, 200 μl), and an aliquot (20 μl) subjected to reversed-phase column chromatography. The elution conditions were as follows: linear gradient acetonitrile/3% acetic acid in H2O from 10:90 to 30:70 between 0 and 35 min; then to 5:95 in 5 min and finally isocratic at 5:95 for 5 min, at a flow rate of 1 ml min^−1, and detection at 280 nm. Fractions corresponding to matairesinol were individually collected, aliquots removed for liquid scintillation counting, and the remainder freeze-dried.
(§2) [9′-^3H2]Matairesinol (0.5 kBq), collected after reversed-phase column chromatography, was reduced with LiAlH4 to give [9′-^3H2]secoisolariciresinol (0.26 kBq).
(§3) The E. coli culture containing the dehydrogenase clone was grown at 37° C. in 25 ml of SOC Kn50 medium to an O.D. of 0.5. To this was added IPTG to give a final concentration of 0.5 mM and the culture was grown at 18° C. for an additional 20 h. The cells were pelleted at 600×g 4° C. 12 min, resuspended in 5 ml of 20 mM Tris-HCl pH 8.0, 5 mM DTT buffer and repelleted. The final bacterial pellet was resuspended in 200 μL of the above buffer and sonicated 4×15 sec using a Braun-Sonic 2000 sonicator set at maximal output of −0.64. The sample was then centrifuged 20,800 ×g 4° C. 15 min and the crude supernate was assayed for dehydrogenase activity. […] The clone SMDEHY631 (SEQ ID NO:9) was also expressed in E. coli in the foregoing manner.

cAMP-phosphodiesterase = settings: cited from earlier work
[2] = molecular target: T2, pinoresinol/lariciresinol reductase (Forsythia intermedia, UniProt P93143); settings: incubation with (±)-pinoresinols in presence of NADPH; cited from earlier work
T2 construct: host or cells: E. coli, pSBETa vector
T2 sequence (P93143 1-312): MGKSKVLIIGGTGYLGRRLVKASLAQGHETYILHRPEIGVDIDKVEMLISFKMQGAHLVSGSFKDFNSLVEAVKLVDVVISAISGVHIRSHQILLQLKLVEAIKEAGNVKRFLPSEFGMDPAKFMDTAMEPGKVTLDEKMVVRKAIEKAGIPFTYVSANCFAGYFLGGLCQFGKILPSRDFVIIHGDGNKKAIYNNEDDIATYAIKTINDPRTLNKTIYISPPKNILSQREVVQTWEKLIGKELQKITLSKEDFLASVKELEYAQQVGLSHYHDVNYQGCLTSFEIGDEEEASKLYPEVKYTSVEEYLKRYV

[3] = molecular target: HIV reverse transcriptase (Human immunodeficiency virus type 1 group M subtype B, UniProt P04585); settings: cited from earlier work
HIV-1 = settings: cited from earlier work
[4] = molecular target: T3, secoisolariciresinol dehydrogenase (Forsythia intermedia, UniProt Q94KL7); test: Dehydrogenase activity of recombinant enzyme expressed in E. coli; type: biochemical; settings: protein produced in E. coli
T3 construct: The dehydrogenase coding region was also excised using the Nde I sites at the 5′ and 3′ ends and cloned into the SBET vector; made in house; host or cells: E. coli B834(DE3), SBET vector
Procedure: as §1, §2, §3

For “(+)-secoisolariciresinol [(+)-antipode of secoisolariciresinol]”, which “conversion as substrate into (−)-lactol and (−)-matairesinol” value [1] is on record?
Its value is “did not serve as a substrate”.

For `COc1cc(C[C@H]2COC(=O)[C@@H]2Cc2ccc(O)c(OC)c2)ccc1O` [matairesinol], which “inhibition of cAMP-phosphodiesterase” value (cAMP-phosphodiesterase) is on record?
Its value is “inhibit”.

Which “served as substrate of recombinant pinoresinol/lariciresinol reductase” value [2] does the source give for `COc1cc(C2OCC3C(c4ccc(O)c(OC)c4)OCC23)ccc1O` (single isomer, unassigned; (+)) [(+)-pinoresinol] here?
Its value is “served as substrates”.

Which results are given for (−)-trachelogenin?
effectiveness against HIV due to reverse transcriptase inhibitory activity [3]: effective against HIV; inhibition of in vitro replication of HIV-1 (HIV-1): inhibits

With `CC(Cc1ccc(O)c(O)c1)C(C)Cc1ccc(O)c(O)c1` (stereo not shown) [nordihydroguaiaretic acid] as the molecule, how does the “effectiveness against HIV due to reverse transcriptase inhibitory activity” value [3] read?
The value was “effective against HIV”.

Which “served as substrate of recombinant pinoresinol/lariciresinol reductase” value [2] does the source give for `COc1cc(C[C@H]2CO[C@H](c3ccc(O)c(OC)c3)[C@H]2CO)ccc1O` [(+)-lariciresinol] here?
Its value is “served as substrates”.

For (−)-pinoresinol, which “served as substrate of recombinant pinoresinol/lariciresinol reductase” value [2] is on record?
The value was “not”.

Which “conversion as substrate into (−)-lactol and (−)-matairesinol” value [1] does the source give for (−)-secoisolariciresinol here?
Its value is “catalyzed the conversion”.

Which “effectiveness against HIV due to reverse transcriptase inhibitory activity” value [3] does the source give for `COc1cc(C[C@H]2C(=O)OC[C@@H]2Cc2ccc(OC)c(OC)c2)ccc1O` [(−)-arctigenin] here?
Its value is “effective against HIV”.

B1: SMDEHY133: protein (SEQ ID NO:2) encoded by engineered cDNA clone DEHY133 (SEQ ID NO:1) (protein)
chain: MQLRTAFARRLEGKVALITGGASGIGETTAKLFSQHGAKVAIADVQDELGHSVVEAIGTSNSTYIHCDVTNEDGVKNAVDNTVSTYGKLDIMFSNAGISDPNRPRIIDNEKADFERVLSVNVTGVFLCMKHAARVMIPARSGNIISTASLSSTMGGGSSHAYCGSKHAVLALTRNLAVELGQFGIRVNCLSPFGLPTALGKKFSGIKNEEEFENVINFAGNLKGPKFNVEDVANAALYLASDEAKYVSGHNLFIDGGFSVCNSVIKVFQYPDS
modifications: Forsythia x intermedia
Which “catalysis of conversion of (−)-secoisolariciresinol into (−)-matairesinol by protein of the clone” value (“catalysis” below) [4] does the source give for B1 here?
The value was “catalyzed the stereochemical conversion”.

B2: SMDEHY631: protein (SEQ ID NO:10) encoded by cDNA clone SEQ ID NO:9 (protein)
chain: MATSQLRTAFARRLEGKVALITGGASGVGEVTAKLFSQHGAKVAIADVQDELGHSVVEAIGLSNSTYIHCDVTNEDGVKNAVDNTVSTYGKLDIMFNNAGISDPYKPRVIDNEKADFERVLSVNVTGVFLFMKHAARIMVPARSGCIISTASLSSTMGGGSSHAYCGSKHAVLGLTRNLAVELGQFGIRVNCLSPFGLPTPLAKKFTGIENDEDLANGIERAGNLKGTKLRIEDVANAALFLASDEAQYVSGQNLFIDGGFSVCNSAIKLFQYPDS
modifications: Forsythia x intermedia
Which “catalysis” value [4] does the source give for B2 here?
Its value is “catalyzed the stereochemical conversion”.

B3: SMDEHY321: protein (SEQ ID NO:4) encoded by cDNA clone SEQ ID NO:3 (protein)
chain: MAATSQVLTAIARRLEGKVALITGGASGIGETTAKLFSQHGAKVAIADVQDELGHSVVEAIGTSNSTYIHCDVTNEDGVKNAVDNTVSTYGKLDIMFSNAGISDPNRPRIIDNEKADFERVFSVNVTGVFLCMKHAARVMIPARSGNIISTASLSSTMGGGSSHAYCGSKHAVLGLTRNLAVELGQFGIRVNCLSPFGLPTALGKKFSGIKNEEEFENVINFAGNLKGPKFNVEDVANAALYLASDEAKYVSGHNLFIDGGFSVCNSVIKVFQYPDS
modifications: Forsythia x intermedia
Which “catalysis” value [4] does the source give for B3 here?
Its value is “catalyzed the stereochemical conversion”.
